# The source made the active and inactive calls.
# Key:
# [1] = biological target: Tyrosine-protein phosphatase non-receptor type 11 (Homo sapiens, UniProt Q06124); test: SHP2 phosphatase inhibition, dose response, selectivity assay for STEP inhibitor project, biochemical (AID 602367); type: functional; conditions: read-out: IC50_Mean
# [2] = biological target: Tyrosine-protein phosphatase non-receptor type 5 (Homo sapiens, UniProt P54829); test: STEP phosphatase inhibitors, confirmation, biochemical, fluorescence intensity, uHTS hits (AID 602372); type: functional; conditions: read-out: IC50_Mean
# [3] = biological target: Dual specificity protein phosphatase 3 (Homo sapiens, UniProt P51452); test: VHR phosphatase inhibition, dose response, selectivity assay for STEP inhibitor project, biochemical (AID 602374); type: functional; conditions: read-out: IC50_Mean
# Phospholipase A2 = Phospholipase A2 (Homo sapiens, UniProt P04054); type: functional;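 further: confirmatory dose-response counterscreen on phospholipase A2, testing hits that came from an ultra-high-throughput screen for ATG4B inhibitors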
# [4] = Luminescence Cell-Based Dose Confirmation HTS to Identify Inhibitors of Platelet Dense Granule Release. [Related pubchem assays: 1663 (Primary HTS), 1678 (Summary of Project)]; type: functional
# [5] = biological target: Luciferin 4-monooxygenase (Photinus pyralis, UniProt P08659); test: firefly luciferase enzyme inhibitors, dose response, biochemical, luminescence (AID 1891)
# Cysteine protease ATG4B = biological target: T1, Cysteine protease ATG4B (Homo sapiens, UniProt Q9Y4P1); type: functional;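 further: Fluorescence-based dose-response confirmation assay measuring inhibition of ATG4B activity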
# T1 sequence (Q9Y4P1 whole entry): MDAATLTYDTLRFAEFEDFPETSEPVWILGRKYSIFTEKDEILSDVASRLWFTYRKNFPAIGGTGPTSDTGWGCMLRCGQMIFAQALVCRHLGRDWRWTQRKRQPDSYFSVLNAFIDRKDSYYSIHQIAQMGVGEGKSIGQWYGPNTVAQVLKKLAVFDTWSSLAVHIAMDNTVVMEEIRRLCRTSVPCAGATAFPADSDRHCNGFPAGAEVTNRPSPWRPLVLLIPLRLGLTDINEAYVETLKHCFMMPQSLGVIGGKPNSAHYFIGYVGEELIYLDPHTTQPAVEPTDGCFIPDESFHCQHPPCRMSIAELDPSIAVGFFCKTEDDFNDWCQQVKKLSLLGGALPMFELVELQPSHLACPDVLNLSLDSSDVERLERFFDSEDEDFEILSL
# BJ [6] = test: cytotoxicity toward Ras-transformed BJeLR fibroblasts, dose response, cell-based, alamar blue fluorescence, cherrypicked samples (AID 2631); type: functional; conditions: Homo sapiens;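 further: confirmatory dose-response assay in RAS-dependent BJ fibroblasts engineered with TERT, LT and ST, with cytotoxicity read by fluorescence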
# BJ [7] = test: cells; type: functional, cell-based; conditions: Homo sapiens
# BJ [8] = test: cytotoxicity toward BJ-TERT fibroblasts, dose response, cell-based, RAS-independent, luminescence (AID 1933); type: functional; conditions: Homo sapiens
# BJ [9] = test: cytotoxicity toward BJ-TERT-LT-ST fibroblasts, dose response, cell-based, RAS-independent, luminescence (AID 1935); type: functional; conditions: Homo sapiens;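 further: BJ fibroblasts immortalized with TERT plus LT and ST oncogenes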
# Vero = test: cells; type: functional; conditions: Chlorocebus sabaeus
# [10] = cytotoxicity toward DRD oncogenic fibroblasts, dose response, cell-based, non-viral oncogenic, luminescence (AID 1934); type: functional; conditions: Homo sapiens
# [11] = biological target: T2, Sentrin-specific protease 8 (Homo sapiens, UniProt Q96LD8); type: functional
# T2 sequence (Q96LD8 whole entry): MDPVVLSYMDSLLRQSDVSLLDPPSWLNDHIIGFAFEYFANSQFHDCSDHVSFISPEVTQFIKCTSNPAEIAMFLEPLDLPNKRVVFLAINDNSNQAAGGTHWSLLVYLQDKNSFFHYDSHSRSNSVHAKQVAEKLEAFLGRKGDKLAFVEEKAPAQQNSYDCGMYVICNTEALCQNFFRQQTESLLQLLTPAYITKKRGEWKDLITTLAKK
# Caspase-3 [12] = biological target: T3, Caspase-3 (Homo sapiens, UniProt P42574); test: Dose-response confirmation of uHTS inhibitor hits of Sentrin-Specific Protease 8 in a Caspase-3 Fluorescence assay.; type: functional
# T3 sequence (P42574 whole entry): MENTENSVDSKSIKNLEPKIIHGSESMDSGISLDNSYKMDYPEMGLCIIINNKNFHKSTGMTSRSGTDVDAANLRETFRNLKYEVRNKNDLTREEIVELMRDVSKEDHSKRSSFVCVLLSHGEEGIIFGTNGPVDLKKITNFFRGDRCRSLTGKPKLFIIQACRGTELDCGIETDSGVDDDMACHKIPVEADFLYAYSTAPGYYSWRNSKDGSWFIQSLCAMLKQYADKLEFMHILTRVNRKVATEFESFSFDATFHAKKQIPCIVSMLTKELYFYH
# [13] = biological target: T2, Sentrin-specific protease 8; type: functional; remark: listed apart in the source
# [14] = biological target: T4, Sentrin-specific protease 6 (Homo sapiens, UniProt Q9GZR1); type: functional;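 further: Luminescence-based dose-response confirmatory assay of SENP6 inhibition, following up an ultra-high-throughput screen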
# T4 sequence (Q9GZR1 whole entry): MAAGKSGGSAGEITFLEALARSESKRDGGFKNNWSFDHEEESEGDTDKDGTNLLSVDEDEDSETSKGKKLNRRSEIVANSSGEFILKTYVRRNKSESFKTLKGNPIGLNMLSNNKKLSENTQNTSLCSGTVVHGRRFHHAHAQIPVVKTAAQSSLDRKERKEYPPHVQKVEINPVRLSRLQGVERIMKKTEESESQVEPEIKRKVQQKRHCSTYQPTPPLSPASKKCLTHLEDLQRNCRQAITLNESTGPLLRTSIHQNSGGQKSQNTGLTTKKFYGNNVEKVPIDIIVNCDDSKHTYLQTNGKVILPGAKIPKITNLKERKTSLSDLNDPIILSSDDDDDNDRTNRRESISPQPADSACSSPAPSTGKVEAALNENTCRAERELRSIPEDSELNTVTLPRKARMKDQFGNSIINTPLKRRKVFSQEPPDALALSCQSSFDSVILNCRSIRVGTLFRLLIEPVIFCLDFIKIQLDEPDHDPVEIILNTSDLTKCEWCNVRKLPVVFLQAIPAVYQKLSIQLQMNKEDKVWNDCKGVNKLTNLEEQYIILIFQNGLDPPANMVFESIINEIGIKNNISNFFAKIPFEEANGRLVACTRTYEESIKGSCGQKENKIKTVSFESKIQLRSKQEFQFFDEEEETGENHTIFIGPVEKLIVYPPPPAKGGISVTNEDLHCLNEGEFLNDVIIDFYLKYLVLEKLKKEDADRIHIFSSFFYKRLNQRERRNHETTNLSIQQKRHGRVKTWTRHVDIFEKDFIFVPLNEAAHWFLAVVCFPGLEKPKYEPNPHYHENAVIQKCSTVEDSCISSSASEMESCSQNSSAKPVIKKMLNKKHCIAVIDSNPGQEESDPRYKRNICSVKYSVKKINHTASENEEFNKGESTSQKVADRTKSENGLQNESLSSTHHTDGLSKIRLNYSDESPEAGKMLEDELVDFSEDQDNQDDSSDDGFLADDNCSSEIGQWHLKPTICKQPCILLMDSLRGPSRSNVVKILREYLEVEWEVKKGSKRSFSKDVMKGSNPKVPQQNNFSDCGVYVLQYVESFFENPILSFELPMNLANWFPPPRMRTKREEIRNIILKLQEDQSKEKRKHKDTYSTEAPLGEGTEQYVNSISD
# [15] = biological target: T5, Sentrin-specific protease 7 (Homo sapiens, UniProt Q9BQF6); type: functional;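 further: Luminescence-based dose-response confirmation of ultra-high-throughput screening hits, measuring inhibition of SENP7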
# T5 sequence (Q9BQF6 whole entry): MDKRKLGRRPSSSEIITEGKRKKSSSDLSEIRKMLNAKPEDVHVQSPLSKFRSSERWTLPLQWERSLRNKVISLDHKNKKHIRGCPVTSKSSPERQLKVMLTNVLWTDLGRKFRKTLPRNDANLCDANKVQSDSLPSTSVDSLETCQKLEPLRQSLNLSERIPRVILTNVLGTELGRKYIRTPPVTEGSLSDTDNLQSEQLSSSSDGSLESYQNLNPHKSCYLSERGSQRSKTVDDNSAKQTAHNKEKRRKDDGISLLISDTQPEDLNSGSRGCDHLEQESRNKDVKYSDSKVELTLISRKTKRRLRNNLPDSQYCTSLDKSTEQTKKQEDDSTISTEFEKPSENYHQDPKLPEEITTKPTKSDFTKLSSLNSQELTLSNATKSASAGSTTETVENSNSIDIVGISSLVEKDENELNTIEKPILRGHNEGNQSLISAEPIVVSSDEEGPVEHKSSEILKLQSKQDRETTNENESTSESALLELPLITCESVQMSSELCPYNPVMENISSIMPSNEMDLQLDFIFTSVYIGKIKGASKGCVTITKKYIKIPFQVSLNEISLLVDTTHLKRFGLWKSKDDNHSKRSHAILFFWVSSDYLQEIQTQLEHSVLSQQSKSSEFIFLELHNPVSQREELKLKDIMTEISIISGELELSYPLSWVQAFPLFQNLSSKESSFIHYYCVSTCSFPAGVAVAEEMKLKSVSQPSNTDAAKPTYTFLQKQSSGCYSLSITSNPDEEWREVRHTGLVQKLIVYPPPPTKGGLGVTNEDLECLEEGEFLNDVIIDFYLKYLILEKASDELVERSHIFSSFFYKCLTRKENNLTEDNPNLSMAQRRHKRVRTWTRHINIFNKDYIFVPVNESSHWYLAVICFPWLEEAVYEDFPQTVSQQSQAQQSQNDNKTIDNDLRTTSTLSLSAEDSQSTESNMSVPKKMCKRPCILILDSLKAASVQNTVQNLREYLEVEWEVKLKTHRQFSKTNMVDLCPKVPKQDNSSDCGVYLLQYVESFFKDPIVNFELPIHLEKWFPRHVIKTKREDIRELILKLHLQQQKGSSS
# [16] = biological target: T2, Sentrin-specific protease 8; type: functional; remark: listed apart in the source
# Caspase-3 [17] = biological target: T3, Caspase-3; type: functional
# H4 = test: Luminescence Cell-Based Dose Response HTS to Identify Activators of 5'UTR Stem-Loop Driven Prion Protein mRNA Translation in H4 Neuroglioblastoma Cells. [Related pubchem assays: 1829 (Project Summary), 1814 (Primary HTS)]; type: functional; conditions: Homo sapiens
# [18] = Luminescence Cell-Based Dose Response HTS to Identify Activators of Luciferase Translation or Activity in H4 […] Cells. [Related pubchem assays: 1829 (Project Summary), 1814 (Primary HTS)]; type: functional
# [19] = biological target: Nuclear receptor subfamily 5 group A member 2 (Homo sapiens, UniProt O00482); type: functional, cell-based;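 further: HEK293T cells transfected with LRH-1 and a StAR promoter luciferase reporter; potency for inhibitors that lower LRH-1 driven reporter light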
# [20] = StAR promoter reporter inhibition counter-screen, dose response, counter-screen for LRH-1 inverse agonist project, cell-based, luminescence, luciferase reporter (AID 651969); type: functional
# Steroidogenic factor 1 = Steroidogenic factor 1 (Homo sapiens, UniProt Q13285); test: Counterscreen for inverse agonists of the liver receptor homolog-1 (LRH-1; NR5A2): Luminescence-based cell-based high throughput dose response assay to identify inverse agonists of the Steroidogenic Factor 1 Nuclear Receptor (SF1; NR5A1).; type: functional
# Steroidogenic factor 1, sequence (Q13285 whole entry): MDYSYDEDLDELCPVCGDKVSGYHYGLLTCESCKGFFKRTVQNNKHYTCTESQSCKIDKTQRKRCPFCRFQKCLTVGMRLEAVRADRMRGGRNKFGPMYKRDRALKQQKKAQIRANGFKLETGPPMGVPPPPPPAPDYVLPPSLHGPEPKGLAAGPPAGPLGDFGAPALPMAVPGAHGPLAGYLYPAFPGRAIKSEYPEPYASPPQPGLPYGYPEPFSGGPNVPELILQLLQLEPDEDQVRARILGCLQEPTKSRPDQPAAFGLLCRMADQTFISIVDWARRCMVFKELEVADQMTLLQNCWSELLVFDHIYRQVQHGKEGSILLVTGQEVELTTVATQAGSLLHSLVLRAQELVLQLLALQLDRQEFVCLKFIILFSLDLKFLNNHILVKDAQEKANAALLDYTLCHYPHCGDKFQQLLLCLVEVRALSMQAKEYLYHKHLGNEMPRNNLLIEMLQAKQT
# Luciferin 4-monooxygenase, sequence (P08659 whole entry): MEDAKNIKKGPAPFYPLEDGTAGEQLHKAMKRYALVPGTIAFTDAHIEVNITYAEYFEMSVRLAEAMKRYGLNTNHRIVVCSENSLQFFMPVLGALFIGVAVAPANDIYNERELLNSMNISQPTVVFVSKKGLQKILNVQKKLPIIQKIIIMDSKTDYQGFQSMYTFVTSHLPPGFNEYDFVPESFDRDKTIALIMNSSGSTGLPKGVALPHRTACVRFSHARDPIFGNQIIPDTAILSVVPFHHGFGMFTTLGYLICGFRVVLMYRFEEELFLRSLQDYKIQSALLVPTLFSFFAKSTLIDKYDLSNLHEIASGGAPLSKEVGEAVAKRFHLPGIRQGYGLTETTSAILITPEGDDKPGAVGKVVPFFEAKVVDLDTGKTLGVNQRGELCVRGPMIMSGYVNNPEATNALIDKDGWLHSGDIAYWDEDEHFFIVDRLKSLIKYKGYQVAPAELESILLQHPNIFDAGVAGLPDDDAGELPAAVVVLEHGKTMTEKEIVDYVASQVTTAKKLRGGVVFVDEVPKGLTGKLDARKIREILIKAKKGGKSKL
# Dual specificity protein phosphatase 3, sequence (P51452 whole entry): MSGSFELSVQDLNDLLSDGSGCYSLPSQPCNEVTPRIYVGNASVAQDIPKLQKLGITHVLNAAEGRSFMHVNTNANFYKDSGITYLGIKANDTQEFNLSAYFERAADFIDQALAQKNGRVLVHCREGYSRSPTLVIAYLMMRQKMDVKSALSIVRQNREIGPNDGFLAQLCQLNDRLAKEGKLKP
# Tyrosine-protein phosphatase non-receptor type 11, sequence (Q06124 whole entry): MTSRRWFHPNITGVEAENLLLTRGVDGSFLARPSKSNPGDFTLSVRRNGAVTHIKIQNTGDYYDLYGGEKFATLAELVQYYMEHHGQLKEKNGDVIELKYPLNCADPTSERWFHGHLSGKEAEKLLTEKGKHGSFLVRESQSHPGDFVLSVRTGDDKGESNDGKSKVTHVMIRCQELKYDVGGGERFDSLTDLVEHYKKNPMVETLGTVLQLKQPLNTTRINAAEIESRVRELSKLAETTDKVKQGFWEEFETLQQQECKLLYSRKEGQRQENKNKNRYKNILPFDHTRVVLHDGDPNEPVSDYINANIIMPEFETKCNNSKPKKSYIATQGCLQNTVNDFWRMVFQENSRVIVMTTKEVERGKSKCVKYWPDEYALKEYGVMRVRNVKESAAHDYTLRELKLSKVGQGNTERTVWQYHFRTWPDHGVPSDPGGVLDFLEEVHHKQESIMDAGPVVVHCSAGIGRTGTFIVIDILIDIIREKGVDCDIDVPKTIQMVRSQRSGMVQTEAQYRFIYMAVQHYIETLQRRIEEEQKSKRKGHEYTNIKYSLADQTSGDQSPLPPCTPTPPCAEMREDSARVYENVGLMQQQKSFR
# Nuclear receptor subfamily 5 group A member 2, sequence (O00482 whole entry): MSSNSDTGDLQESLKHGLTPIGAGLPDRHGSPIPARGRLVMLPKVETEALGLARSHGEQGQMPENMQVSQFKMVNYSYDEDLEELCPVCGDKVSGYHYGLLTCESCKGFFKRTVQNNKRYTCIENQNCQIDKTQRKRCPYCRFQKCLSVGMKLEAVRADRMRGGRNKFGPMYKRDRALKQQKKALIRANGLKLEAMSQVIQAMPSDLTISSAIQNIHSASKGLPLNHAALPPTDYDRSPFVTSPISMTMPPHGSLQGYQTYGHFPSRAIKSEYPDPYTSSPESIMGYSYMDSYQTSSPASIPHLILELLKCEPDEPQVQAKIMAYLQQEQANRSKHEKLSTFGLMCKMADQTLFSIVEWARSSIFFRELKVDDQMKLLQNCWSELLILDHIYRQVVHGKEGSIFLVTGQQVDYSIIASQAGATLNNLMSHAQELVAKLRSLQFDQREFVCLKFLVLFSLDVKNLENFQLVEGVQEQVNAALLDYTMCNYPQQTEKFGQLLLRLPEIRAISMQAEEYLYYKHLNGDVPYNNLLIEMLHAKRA
# Tyrosine-protein phosphatase non-receptor type 5, sequence (P54829 whole entry): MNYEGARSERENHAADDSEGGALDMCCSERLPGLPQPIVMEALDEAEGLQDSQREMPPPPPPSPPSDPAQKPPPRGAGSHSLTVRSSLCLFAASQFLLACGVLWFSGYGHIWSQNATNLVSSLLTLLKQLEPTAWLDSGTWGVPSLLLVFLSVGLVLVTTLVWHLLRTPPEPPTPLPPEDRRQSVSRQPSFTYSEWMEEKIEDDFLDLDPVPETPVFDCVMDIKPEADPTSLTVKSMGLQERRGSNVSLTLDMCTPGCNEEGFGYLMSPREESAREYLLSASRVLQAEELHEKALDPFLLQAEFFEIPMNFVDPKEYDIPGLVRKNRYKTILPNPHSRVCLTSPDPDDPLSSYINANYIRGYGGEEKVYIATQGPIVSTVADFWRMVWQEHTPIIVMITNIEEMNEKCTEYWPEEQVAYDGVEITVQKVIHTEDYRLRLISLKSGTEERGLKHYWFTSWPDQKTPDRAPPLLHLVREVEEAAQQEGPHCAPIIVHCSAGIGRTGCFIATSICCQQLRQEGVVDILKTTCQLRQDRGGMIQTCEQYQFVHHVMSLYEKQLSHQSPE
# Phospholipase A2, sequence (P04054 whole entry): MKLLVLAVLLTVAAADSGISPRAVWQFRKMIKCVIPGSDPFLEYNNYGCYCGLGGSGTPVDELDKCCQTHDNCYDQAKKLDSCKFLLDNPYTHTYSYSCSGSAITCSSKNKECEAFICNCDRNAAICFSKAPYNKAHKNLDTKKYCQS
smiles,measurement,setting,value
COCCCN(C(S)=Nc1c(C)cc(C)cc1C)C(C)c1ccccn1 (stereo not given),IC50,[1],15.1 µM (active)
same,IC50,[2],> 80 µM (inactive)
same,IC50,[3],4.94 µM (active)
Cc1cccc(OCC(=O)Nc2ccccc2-c2ccccc2)c1,IC50,Phospholipase A2,11.9 µM (active)
same,EC50,[4],> 112 µM (not active)
same,EC50,[5],73.8 µM (active)
same,IC50,Cysteine protease ATG4B,11.5 µM (active)
COc1ccc(OC)c(Nc2nc(N)nc(CCl)n2)c1,EC50,BJ [6],15.7 µM (active)
same,EC50,BJ [7],4.66 µM (inconclusive)
same,EC50,BJ [8],0.258 µM (active)
same,EC50,BJ [9],> 150 µM (inconclusive)
same,CC50,Vero,7.93 µM (active)
same,EC50,[10],2.16 µM (active)
O=C1CC(N2CCOCC2)=NN1c1ccc([N+](=O)[O-])cc1,IC50,[11],11.7 µM (active)
same,IC50,Caspase-3 [12],100 µM (inactive)
same,IC50,[13],24.6 µM (active)
Clc1nnc(N/N=C/c2ccccc2)c2ccccc12,IC50,[14],5.57 µM (active)
same,IC50,[15],2.83 µM (active)
same,IC50,[16],8.2 µM (active)
same,IC50,Caspase-3 [17],6.38 µM (active)
same,EC50,H4,5.27 µM (active)
same,EC50,[18],0.694 µM (active)
Cc1c(NC(=S)NC(=O)c2ccc(Cl)cc2)c(=O)n(-c2ccccc2)n1C,IC50,[19],12 µM (inactive)
same,IC50,[20],35.9 µM (inactive)
same,IC50,Steroidogenic factor 1,35.9 µM (inactive)

# Reference: ChEMBL document CHEMBL1201862, “PubChem BioAssay data set” (2004)
